Patent US9434725B2, “5-azaindazole compounds and methods of use” (priority 2012, dated 2016)

Key:
Assay type in all cases: biochemical
PIM3 = PIM3 (Homo sapiens (Human), UniProt Q86V86); experiment: Pim kinase binding activity, Caliper LC3000 microfluidic peptide phosphorylation assay, PIM3; details: 10 μM ATP, 90 min, room temperature; read-out: PIM3 LC3K (KI)
Procedure: (§1) A fluorescent-labeled Pim-specific peptide substrate, was custom synthesized by American Peptide Company (Sunnyvale, Calif.). Reaction Buffer contained 10 mM HEPES, pH 7.2, 10 mM MgCl2, 0.01% Tween 20, 2 mM DTT. Termination Buffer contained 190 mM HEPES, pH 7.2, 0.015% Brij-35, 0.2% Coating Reagent 3 (Caliper Life Sciences, Hopkinton, Mass.), 20 mM EDTA. Separation Buffer contained 100 mM HEPES, pH 7.2, 0.015% Brij-35, 0.1% Coating Reagent 3, 1:200 Coating Reagent 8 (Caliper Life Sciences, Hopkinton, Mass.), 10 mM EDTA and 5% DMSO.
(§2) PIM reactions were carried out in a final volume of 10 μL per well in a 384-well plate. […] After 90 minutes of incubation at room temperature, the phosphorylation reaction was stopped by the addition of 10 μL Termination Buffer. The product and substrate in each independent reaction were separated on a 12-sipper microfluidic chip (Caliper Life Sciences, Hopkinton, Mass.) run on a Caliper LC3000® (Caliper Life Sciences, Hopkinton, Mass.). The separation of product and substrate was optimized by choosing voltages and pressure using Caliper's Optimizer software (Hopkinton, Mass.). […] Substrate conversion was calculated from the electropherogram using HTS Well Analyzer software (Caliper Life Sciences, Hopkinton, Mass.). Ki values for the test compound were calculated.

PIM2 = PIM2 (Homo sapiens (Human), UniProt Q9P1W9); experiment: Pim kinase binding activity, Caliper LC3000 microfluidic peptide phosphorylation assay, PIM2; details: 10 μM ATP, 90 min, room temperature; read-out: PIM2 LC3K (KI)
Procedure: as §1, §2

PIM1 = PIM1 (Homo sapiens (Human), UniProt P11309); experiment: biochemical; details: 10 μM ATP, 90 min, room temperature; read-out: PIM1 LC3K (KI)
Procedure: as §1, §2

PIM2, sequence (Q9P1W9 whole entry): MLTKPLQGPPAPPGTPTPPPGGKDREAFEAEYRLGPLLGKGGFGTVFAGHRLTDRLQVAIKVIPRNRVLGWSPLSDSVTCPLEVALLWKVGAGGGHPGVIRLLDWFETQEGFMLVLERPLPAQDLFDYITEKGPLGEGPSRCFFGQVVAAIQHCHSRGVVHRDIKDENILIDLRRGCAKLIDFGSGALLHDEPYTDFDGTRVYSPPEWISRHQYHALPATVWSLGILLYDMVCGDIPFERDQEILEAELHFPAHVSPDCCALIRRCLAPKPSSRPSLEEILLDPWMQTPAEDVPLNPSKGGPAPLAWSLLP
PIM1, sequence (P11309 whole entry): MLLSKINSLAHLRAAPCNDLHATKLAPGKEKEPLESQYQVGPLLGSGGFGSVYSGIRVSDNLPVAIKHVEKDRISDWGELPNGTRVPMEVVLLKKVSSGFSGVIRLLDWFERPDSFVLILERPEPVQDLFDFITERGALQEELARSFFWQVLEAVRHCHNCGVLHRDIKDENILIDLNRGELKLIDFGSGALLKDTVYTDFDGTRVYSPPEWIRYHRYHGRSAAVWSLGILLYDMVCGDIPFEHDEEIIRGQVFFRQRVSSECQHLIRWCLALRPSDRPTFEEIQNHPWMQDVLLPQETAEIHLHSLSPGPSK

Compound: Cc1cc(-c2cc3c(cn2)cnn3-c2cccc(N3CCNCC3)n2)sn1 [Compound 119, 3-methyl-5-[1-(6-piperazin-1-yl-2-pyridyl)pyrazolo[4,3-c]pyridin-6-yl]isothiazole]
- Ki (PIM3): 0.307 nM
- Ki (PIM2): 8.49 nM
- Ki (PIM1): 0.426 nM

Compound: CCn1cc(-c2cc3c(cn2)cnn3-c2cccc(N3CCN[C@@H](C)C3)n2)cn1 [Compound 126, (S)-6-(1-ethyl-1H-pyrazol-4-yl)-1-(6-(3-methylpiperazin-1-yl)pyridin-2-yl)-1H-pyrazolo[4,3-c]pyridine]
- Ki (PIM3): 0.349 nM
- Ki (PIM2): 7.36 nM
- Ki (PIM1): 0.349 nM

Compound: CCn1cc(-c2cc3c(cn2)cnn3-c2cccc(N3CCC(O)CC3)n2)cn1 [Compound 129, 1-(6-(6-(1-ethyl-1H-pyrazol-4-yl)-1H-pyrazolo[4,3-c]pyridin-1-yl)pyridin-2-yl)piperidin-4-ol]
- Ki (PIM3): 2.46 nM
- Ki (PIM2): 28.3 nM
- Ki (PIM1): 3.47 nM

Compound: CCn1cc(-c2cc3c(cn2)cnn3-c2cccc(N3CCNC(C)(C)C3)n2)cn1 [Compound 131, 1-(6-(3,3-dimethylpiperazin-1-yl)pyridin-2-yl)-6-(1-ethyl-1H-pyrazol-4-yl)-1H-pyrazolo[4,3-c]pyridine]
- Ki (PIM3): 0.385 nM
- Ki (PIM2): 15.9 nM
- Ki (PIM1): 0.58 nM

Compound: CCn1cc(-c2cc3c(cn2)cnn3-c2cccc(N3CCC(N)CC3)n2)cn1 [Compound 132, 1-(6-(6-(1-ethyl-1H-pyrazol-4-yl)-1H-pyrazolo[4,3-c]pyridin-1-yl)pyridin-2-yl)piperidin-4-amine]
- Ki (PIM3): 0.87 nM
- Ki (PIM2): 19.3 nM
- Ki (PIM1): 1.56 nM

Compound: CCn1cc(-c2cc3c(cn2)cnn3-c2cccc(N3CCC[C@@H](N)C3)n2)cn1 [Compound 134, (R)-1-(6-(6-(1-ethyl-1H-pyrazol-4-yl)-1H-pyrazolo[4,3-c]pyridin-1-yl)pyridin-2-yl)piperidin-3-amine]
- Ki (PIM3): 0.473 nM
- Ki (PIM2): 10.8 nM
- Ki (PIM1): 0.951 nM

Compound: CCn1cc(-c2cc3c(cn2)cnn3-c2cccc(N3CC[C@H](N)C3)n2)cn1 [Compound 135, (S)-1-(6-(6-(1-ethyl-1H-pyrazol-4-yl)-1H-pyrazolo[4,3-c]pyridin-1-yl)pyridin-2-yl)pyrrolidin-3-amine]
- Ki (PIM3): 0.84 nM
- Ki (PIM2): 11.1 nM
- Ki (PIM1): 2.12 nM

Compound: CCn1cc(-c2cc3c(cn2)cnn3-c2cccc(N3CC[C@@H](N)C3)n2)cn1 [Compound 136, (R)-1-(6-(6-(1-ethyl-1H-pyrazol-4-yl)-1H-pyrazolo[4,3-c]pyridin-1-yl)pyridin-2-yl)pyrrolidin-3-amine]
- Ki (PIM3): 0.615 nM
- Ki (PIM2): 17.3 nM
- Ki (PIM1): 2.05 nM

Compound: CCn1cc(-c2cc3c(cn2)cnn3-c2cccc(N3CCCC(N)CC3)n2)cn1 (stereo not drawn) [Compound 140, 1-(6-(6-(1-ethyl-1H-pyrazol-4-yl)-1H-pyrazolo[4,3-c]pyridin-1-yl)pyridin-2-yl)azepan-4-amine]
- Ki (PIM3): 0.454 nM
- Ki (PIM2): 13.4 nM
- Ki (PIM1): 1.04 nM

Compound: CC[C@@H]1CN(c2cccc(-n3ncc4cnc(-c5cnn(CC)c5)cc43)n2)CCN1 [Compound 142, (R)-6-(1-ethyl-1H-pyrazol-4-yl)-1-(6-(3-ethylpiperazin-1-yl)pyridin-2-yl)-1H-pyrazolo[4,3-c]pyridine]
- Ki (PIM3): 0.458 nM
- Ki (PIM2): 15 nM
- Ki (PIM1): 0.802 nM

Compound: CCn1cc(-c2cc3c(cn2)cnn3-c2cccc(NC3CCCCNC3)n2)cn1 (stereo not drawn) [Compound 143, N-(6-(6-(1-ethyl-1H-pyrazol-4-yl)-1H-pyrazolo[4,3-c]pyridin-1-yl)pyridin-2-yl)azepan-3-amine]
- Ki (PIM3): 1.62 nM
- Ki (PIM2): 31.1 nM
- Ki (PIM1): 2.46 nM

Compound: Cn1ncc(-c2cc3c(cn2)cnn3-c2cccc(N3CCCNCC3)n2)cc1=O [Compound 148, 5-(1-(6-(1,4-diazepan-1-yl)pyridin-2-yl)-1H-pyrazolo[4,3-c]pyridin-6-yl)-2-methylpyridazin-3(2H)-one]
- Ki (PIM3): 45.2 nM
- Ki (PIM2): 4100 nM
- Ki (PIM1): 128 nM

Compound: c1cc(N2CCCNCC2)nc(-n2ncc3cnc(-c4cnn(CC5COC5)c4)cc32)c1 [Compound 158, 1-(6-(1,4-Diazepan-1-yl)pyridin-2-yl)-6-(1-(oxetan-3-ylmethyl)-1H-pyrazol-4-yl)-1H-pyrazolo[4,3-c]pyridine]
- Ki (PIM3): 284 nM
- Ki (PIM2): 2900 nM
- Ki (PIM1): 287 nM

Compound: NC(=O)Cn1cc(-c2cc3c(cn2)cnn3-c2cccc(N3CCCNCC3)n2)cn1 [Compound 159, 2-(4-(1-(6-(1,4-Diazepan-1-yl)pyridin-2-yl)-1H-pyrazolo[4,3-c]pyridin-6-yl)-1H-pyrazol-1-yl)acetamide]
- Ki (PIM3): 0.185 nM
- Ki (PIM2): 8.33 nM
- Ki (PIM1): 0.283 nM

Compound: Cc1cncc(-c2cc3c(cn2)cnn3-c2cccc(C3=CCNCC3)n2)n1 [Compound 160, 6-(6-methylpyrazin-2-yl)-1-[6-(1 2 3 6-tetrahydropyridin-4-yl)-2-pyridyl]pyrazolo[4,3-c]pyridine]
- Ki (PIM3): 1.06 nM
- Ki (PIM2): 8.31 nM
- Ki (PIM1): 1.17 nM

Compound: c1cc(N2CCCNCC2)nc(-n2ncc3cnc(-c4cnn(CC5CC5)c4)cc32)c1 [Compound 161, 1-(6-(1,4-Diazepan-1-yl)pyridin-2-yl)-6-(1-(cyclopropylmethyl)-1H-pyrazol-4-yl)-1H-pyrazolo[4,3-c]pyridine]
- Ki (PIM3): 2.19 nM
- Ki (PIM2): 18.8 nM
- Ki (PIM1): 1.86 nM

Compound: CCn1cc(-c2cc3c(cn2)cnn3-c2cncc(N3CCCNCC3)n2)cn1 [Compound 163, 1-(6-(1,4-diazepan-1-yl)pyrazin-2-yl)-6-(1-ethyl-1H-pyrazol-4-yl)-1H-pyrazolo[4,3-c]pyridine]
- Ki (PIM3): 2.96 nM
- Ki (PIM2): 26.6 nM
- Ki (PIM1): 1.63 nM

Compound: Cc1cnc(O)c(-c2cc3c(cn2)cnn3-c2cncc(N3CCCNCC3)n2)c1 [Compound 164, 3-(1-(6-(1,4-diazepan-1-yl)pyrazin-2-yl)-1H-pyrazolo[4,3-c]pyridin-6-yl)-5-methylpyridin-2-ol]
- Ki (PIM3): 14.8 nM
- Ki (PIM2): 527 nM
- Ki (PIM1): 50.2 nM

Compound: CC(C)(C)c1cncc(-c2cc3c(cn2)cnn3-c2cccc(N3CCNCC3)n2)n1 [Compound 170, 6-(6-tert-butylpyrazin-2-yl)-1-(6-piperazin-1-yl-2-pyridyl)pyrazolo[4,3-c]pyridine]
- Ki (PIM3): 8.02 nM
- Ki (PIM2): 91.2 nM
- Ki (PIM1): 20.5 nM

Compound: FC(F)n1cc(-c2cc3c(cn2)cnn3-c2cccc(N3CCCNCC3)n2)cn1 [Compound 173, 1-(6-(1,4-Diazepan-1-yl)pyridin-2-yl)-6-(1-(difluoromethyl)-1H-pyrazol-4-yl)-1H-pyrazolo[4,3-c]pyridine]
- Ki (PIM3): 1.09 nM
- Ki (PIM2): 9.54 nM
- Ki (PIM1): 1.21 nM

Compound: c1cc(N2CCCNCC2)nc(-n2ncc3cnc(-c4cncnc4)cc32)c1 [Compound 175, 1-(6-(1,4-Diazepan-1-yl)pyridin-2-yl)-6-(pyrimidin-5-yl)-1H-pyrazolo[4,3-c]pyridine]
- Ki (PIM3): 6.72 nM
- Ki (PIM2): 196 nM
- Ki (PIM1): 11.3 nM

Compound: N#Cc1cncc(-c2cc3c(cn2)cnn3-c2cccc(N3CCNCC3)n2)n1 [Compound 177, 6-[1-(6-piperazin-1-yl-2-pyridyl)pyrazolo[4,3-c]pyridin-6-yl]pyrazine-2-carbonitrile]
- Ki (PIM3): 0.363 nM
- Ki (PIM2): 16.1 nM
- Ki (PIM1): 1.04 nM

Compound: Cc1cncc(-c2cc3c(cn2)cnn3-c2cccc(N3CCC4(CCNCC4)C3)n2)n1 [Compound 199, 2-[6-[6-(6-methylpyrazin-2-yl)pyrazolo[4,3-c]pyridin-1-yl]-2-pyridyl]-2 8-diazaspiro[4.5]decane]
- Ki (PIM3): 0.655 nM
- Ki (PIM2): 13.7 nM
- Ki (PIM1): 0.716 nM
